Experimental data from US7357991B2, “Soluble compound and organic electroluminescent devices” (Idemitsu Kosan Co., Ltd., priority 2001, dated 2008).

Assay: Solubility in organic solvents
Type: physicochemical
Details: in each of toluene, xylene, N-methylpyrrolidone, γ-butyrolactone, 1,3-dimethyl-2-imidazoline, carbitol acetate, butylcarbitol acetate, dichloromethane, dichloroethane, chlorobenzene and isopropyl alcohol
Protocol: Examples of the distyrylarylene derivative represented by general formula (1) of the present invention will be shown in the following. However, the distyrylarylene derivative of the present invention is not limited to the compounds shown as the examples. In the following, C5 means n-pentyl group. The compounds shown in the following as the examples are all dissolved into 1,2-dichloroethane at 20° C. in an amount of 0.5% by weight or more.
In the same procedures as those conducted in Example 1, 4,4″-bis(2,2-diphenylethenyl)-9′,10′-diphenylanthracene was used in place of Compound (A1) and attempted to be dissolved in organic solvents, which were toluene, xylene, N-methylpyrrolidone, γ-butyrolactone, 1,3-dimethyl-2-imidazoline, carbitol acetate, butylcarbitol acetate, dichloromethane, dichloroethane, chlorobenzene and isopropyl alcohol. However, this compound was hardly soluble in these solvents since the solubility was smaller than 0.01% by weight in all of these solvents, and no device could be prepared.

For `C(=C(c1ccccc1)c1ccccc1)c1ccc(-c2c3ccccc3c(-c3ccc(C=C(c4ccccc4)c4ccccc4)cc3)c3ccccc23)cc1` [4,4″-bis(2,2-diphenylethenyl)-9′,10′-diphenylanthracene], the solubility was “smaller than 0.01 % by weight”.
